Legend:
Format in all cases: biochemical
JNK3(h) = target: T1, JNK3(h) (Homo sapiens, UniProt P53779); test: Kinase HotSpot radiometric assay, JNK3
T1 construct: purchased Reaction Biology Corp

JNK2 = target: T2, JNK2 (Homo sapiens, UniProt P45984); test: Kinase HotSpot assay, JNK2
T2 construct: purchased Reaction Biology Corp

JNK1 = target: T3, JNK1 (Homo sapiens, UniProt P45983); test: Kinase HotSpot assay, JNK1
T3 construct: purchased Reaction Biology Corp

GSK3β = target: T4, GSK3β (Homo sapiens, UniProt P49841); test: Kinase HotSpot assay, GSK3β
T4 construct: purchased Reaction Biology Corp
T4 sequence (P49841 whole entry): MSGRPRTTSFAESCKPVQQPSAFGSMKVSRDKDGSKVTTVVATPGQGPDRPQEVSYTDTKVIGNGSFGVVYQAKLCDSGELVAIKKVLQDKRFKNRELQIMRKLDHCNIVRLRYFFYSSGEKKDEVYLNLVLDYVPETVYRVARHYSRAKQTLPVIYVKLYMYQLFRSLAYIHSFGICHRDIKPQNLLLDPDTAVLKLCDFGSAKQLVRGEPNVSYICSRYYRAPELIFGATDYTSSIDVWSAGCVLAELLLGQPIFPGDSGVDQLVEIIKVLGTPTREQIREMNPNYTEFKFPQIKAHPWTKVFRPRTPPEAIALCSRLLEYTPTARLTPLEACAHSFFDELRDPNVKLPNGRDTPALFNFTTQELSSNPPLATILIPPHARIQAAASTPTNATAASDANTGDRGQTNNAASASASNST

over 38 kinases = test: Kinase panel screening, single dose 1 μM, whole panel; details: duplicate
ABL1 = target: T5, ABL1 (Homo sapiens, UniProt P00519); test: Kinase panel screening 1 μM; details: read-out: enzymatic inhibition ABL1
T5 construct: purchased Reaction Biology Corp. (Kinase HotSpot)

AKT1 = target: T6, AKT1 (Homo sapiens, UniProt P31749); test: Kinase panel screening 1 μM; details: read-out: enzymatic inhibition AKT1
T6 construct: purchased Reaction Biology Corp. (Kinase HotSpot)

ALK = target: T7, ALK (Homo sapiens, UniProt Q9UM73); test: Kinase panel screening 1 μM; details: read-out: enzymatic inhibition ALK
T7 construct: purchased Reaction Biology Corp. (Kinase HotSpot)

Aurora A = target: T8, Aurora A (Homo sapiens, UniProt O14965); test: Kinase panel screening 1 μM; details: read-out: enzymatic inhibition Aurora A
T8 construct: purchased Reaction Biology Corp. (Kinase HotSpot)

AXL = target: T9, AXL (Homo sapiens, UniProt P30530); test: Kinase panel screening 1 μM; details: read-out: enzymatic inhibition AXL
T9 construct: purchased Reaction Biology Corp. (Kinase HotSpot)

AXL (R499C) = target: T10, AXL (R499C) (Homo sapiens, UniProt P30530, R499C); test: Kinase panel screening 1 μM; details: read-out: enzymatic inhibition AXL (R499C)
T10 construct: purchased Reaction Biology Corp. (Kinase HotSpot)

BRAF (V599E) = target: T11, BRAF (V599E) (Homo sapiens, UniProt P15056, V600E); test: Kinase panel screening 1 μM; details: read-out: enzymatic inhibition BRAF (V599E)
T11 construct: purchased Reaction Biology Corp. (Kinase HotSpot)
T11 sequence (P15056 416-766 V600E limits assumed): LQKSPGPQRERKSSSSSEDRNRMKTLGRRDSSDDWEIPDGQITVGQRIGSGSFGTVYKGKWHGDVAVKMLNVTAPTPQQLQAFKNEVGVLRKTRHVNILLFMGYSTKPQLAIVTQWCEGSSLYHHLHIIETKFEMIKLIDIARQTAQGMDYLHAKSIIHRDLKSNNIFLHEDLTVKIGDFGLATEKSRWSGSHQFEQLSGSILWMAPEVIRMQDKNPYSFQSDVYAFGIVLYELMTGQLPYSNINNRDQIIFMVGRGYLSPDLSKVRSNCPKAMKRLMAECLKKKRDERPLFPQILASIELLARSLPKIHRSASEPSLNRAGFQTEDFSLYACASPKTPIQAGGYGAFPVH

BTK = target: T12, BTK (Homo sapiens, UniProt Q06187); test: Kinase panel screening 1 μM; details: read-out: enzymatic inhibition BTK
T12 construct: purchased Reaction Biology Corp. (Kinase HotSpot)
T12 sequence (Q06187 whole entry): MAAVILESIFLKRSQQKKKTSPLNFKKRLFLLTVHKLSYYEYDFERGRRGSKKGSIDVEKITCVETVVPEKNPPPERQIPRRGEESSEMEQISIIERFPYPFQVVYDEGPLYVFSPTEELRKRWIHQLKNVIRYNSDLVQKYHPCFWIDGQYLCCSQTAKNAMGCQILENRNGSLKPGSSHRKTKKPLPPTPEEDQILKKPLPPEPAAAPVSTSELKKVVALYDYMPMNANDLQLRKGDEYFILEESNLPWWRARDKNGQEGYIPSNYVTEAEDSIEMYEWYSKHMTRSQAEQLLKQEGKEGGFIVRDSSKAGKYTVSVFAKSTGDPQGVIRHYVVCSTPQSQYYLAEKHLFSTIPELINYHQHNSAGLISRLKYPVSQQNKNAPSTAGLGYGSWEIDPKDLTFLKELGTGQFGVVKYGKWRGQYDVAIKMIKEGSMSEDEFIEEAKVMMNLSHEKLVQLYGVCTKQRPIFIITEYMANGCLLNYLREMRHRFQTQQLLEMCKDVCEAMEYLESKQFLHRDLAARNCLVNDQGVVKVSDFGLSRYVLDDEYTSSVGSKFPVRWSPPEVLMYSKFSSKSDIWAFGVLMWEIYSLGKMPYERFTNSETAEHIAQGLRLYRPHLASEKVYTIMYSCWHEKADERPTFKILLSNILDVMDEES

c-Kit = target: T13, c-Kit (Homo sapiens, UniProt P10721); test: Kinase panel screening 1 μM; details: read-out: enzymatic inhibition c-Kit
T13 construct: purchased Reaction Biology Corp. (Kinase HotSpot)

c-MER = target: T14, c-MER (Homo sapiens, UniProt Q12866); test: Kinase panel screening 1 μM; details: read-out: enzymatic inhibition c-MER
T14 construct: purchased Reaction Biology Corp. (Kinase HotSpot)

c-MET = target: T15, c-MET (Homo sapiens, UniProt P08581); test: Kinase panel screening 1 μM; details: read-out: enzymatic inhibition c-MET
T15 construct: purchased Reaction Biology Corp. (Kinase HotSpot)

c-Src = target: T16, c-Src (Homo sapiens, UniProt P12931); test: Kinase panel screening 1 μM; details: read-out: enzymatic inhibition c-Src
T16 construct: purchased Reaction Biology Corp. (Kinase HotSpot)

EGFR = target: T17, EGFR (Homo sapiens, UniProt P00533); test: Kinase panel screening 1 μM; details: read-out: enzymatic inhibition EGFR
T17 construct: purchased Reaction Biology Corp. (Kinase HotSpot)

ERK1 = target: T18, ERK1 (Homo sapiens, UniProt P27361); test: Kinase panel screening 1 μM; details: read-out: enzymatic inhibition ERK1
T18 construct: purchased Reaction Biology Corp. (Kinase HotSpot)

FGFR3 = target: T19, FGFR3 (Homo sapiens, UniProt P22607); test: Kinase panel screening 1 μM; details: read-out: enzymatic inhibition FGFR3
T19 construct: purchased Reaction Biology Corp. (Kinase HotSpot)

FYN = target: T20, FYN (Homo sapiens, UniProt P06241); test: Kinase panel screening 1 μM; details: read-out: enzymatic inhibition FYN
T20 construct: purchased Reaction Biology Corp. (Kinase HotSpot)
T20 sequence (P06241 whole entry): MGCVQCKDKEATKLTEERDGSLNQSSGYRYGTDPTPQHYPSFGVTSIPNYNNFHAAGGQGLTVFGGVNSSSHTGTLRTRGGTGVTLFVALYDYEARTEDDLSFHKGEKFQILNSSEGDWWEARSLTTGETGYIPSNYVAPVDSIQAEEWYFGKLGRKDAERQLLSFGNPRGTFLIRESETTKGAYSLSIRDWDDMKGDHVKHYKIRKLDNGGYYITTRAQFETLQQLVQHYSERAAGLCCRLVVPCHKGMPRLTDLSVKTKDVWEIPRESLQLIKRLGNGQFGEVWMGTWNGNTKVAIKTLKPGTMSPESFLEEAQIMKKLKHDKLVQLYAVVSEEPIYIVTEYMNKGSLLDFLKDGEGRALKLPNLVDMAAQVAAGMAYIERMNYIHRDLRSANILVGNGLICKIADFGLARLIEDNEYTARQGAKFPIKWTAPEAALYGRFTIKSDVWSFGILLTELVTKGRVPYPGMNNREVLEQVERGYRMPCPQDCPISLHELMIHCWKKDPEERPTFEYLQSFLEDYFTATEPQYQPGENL

IGF1R = target: T21, IGF1R (Homo sapiens, UniProt P08069); test: Kinase panel screening 1 μM; details: read-out: enzymatic inhibition IGF1R
T21 construct: purchased Reaction Biology Corp. (Kinase HotSpot)

JAK3 = target: T22, JAK3 (Homo sapiens, UniProt P52333); test: Kinase panel screening 1 μM; details: read-out: enzymatic inhibition JAK3
T22 construct: purchased Reaction Biology Corp. (Kinase HotSpot)

KDR/VEGFR2 = target: T23, KDR/VEGFR2 (Homo sapiens, UniProt P35968); test: Kinase panel screening 1 μM; details: read-out: enzymatic inhibition KDR/VEGFR2
T23 construct: purchased Reaction Biology Corp. (Kinase HotSpot)

LCK = target: T24, LCK (Homo sapiens, UniProt P06239); test: Kinase panel screening 1 μM; details: read-out: enzymatic inhibition LCK
T24 construct: purchased Reaction Biology Corp. (Kinase HotSpot)

MEK1 = target: T25, MEK1 (Homo sapiens, UniProt Q02750); test: Kinase panel screening 1 μM; details: read-out: enzymatic inhibition MEK1
T25 construct: purchased Reaction Biology Corp. (Kinase HotSpot)

PDK1/PDHK1 = target: T26, PDK1/PDHK1 (Homo sapiens, UniProt Q15118); test: Kinase panel screening 1 μM; details: read-out: enzymatic inhibition PDK1/PDHK1
T26 construct: purchased Reaction Biology Corp. (Kinase HotSpot)

PLK1 = target: T27, PLK1 (Homo sapiens, UniProt P53350); test: Kinase panel screening 1 μM; details: read-out: enzymatic inhibition PLK1
T27 construct: purchased Reaction Biology Corp. (Kinase HotSpot)

RON/MST1R = target: T28, RON/MST1R (Homo sapiens, UniProt Q04912); test: Kinase panel screening 1 μM; details: read-out: enzymatic inhibition RON/MST1R
T28 construct: purchased Reaction Biology Corp. (Kinase HotSpot)
T28 sequence (Q04912 25-1400): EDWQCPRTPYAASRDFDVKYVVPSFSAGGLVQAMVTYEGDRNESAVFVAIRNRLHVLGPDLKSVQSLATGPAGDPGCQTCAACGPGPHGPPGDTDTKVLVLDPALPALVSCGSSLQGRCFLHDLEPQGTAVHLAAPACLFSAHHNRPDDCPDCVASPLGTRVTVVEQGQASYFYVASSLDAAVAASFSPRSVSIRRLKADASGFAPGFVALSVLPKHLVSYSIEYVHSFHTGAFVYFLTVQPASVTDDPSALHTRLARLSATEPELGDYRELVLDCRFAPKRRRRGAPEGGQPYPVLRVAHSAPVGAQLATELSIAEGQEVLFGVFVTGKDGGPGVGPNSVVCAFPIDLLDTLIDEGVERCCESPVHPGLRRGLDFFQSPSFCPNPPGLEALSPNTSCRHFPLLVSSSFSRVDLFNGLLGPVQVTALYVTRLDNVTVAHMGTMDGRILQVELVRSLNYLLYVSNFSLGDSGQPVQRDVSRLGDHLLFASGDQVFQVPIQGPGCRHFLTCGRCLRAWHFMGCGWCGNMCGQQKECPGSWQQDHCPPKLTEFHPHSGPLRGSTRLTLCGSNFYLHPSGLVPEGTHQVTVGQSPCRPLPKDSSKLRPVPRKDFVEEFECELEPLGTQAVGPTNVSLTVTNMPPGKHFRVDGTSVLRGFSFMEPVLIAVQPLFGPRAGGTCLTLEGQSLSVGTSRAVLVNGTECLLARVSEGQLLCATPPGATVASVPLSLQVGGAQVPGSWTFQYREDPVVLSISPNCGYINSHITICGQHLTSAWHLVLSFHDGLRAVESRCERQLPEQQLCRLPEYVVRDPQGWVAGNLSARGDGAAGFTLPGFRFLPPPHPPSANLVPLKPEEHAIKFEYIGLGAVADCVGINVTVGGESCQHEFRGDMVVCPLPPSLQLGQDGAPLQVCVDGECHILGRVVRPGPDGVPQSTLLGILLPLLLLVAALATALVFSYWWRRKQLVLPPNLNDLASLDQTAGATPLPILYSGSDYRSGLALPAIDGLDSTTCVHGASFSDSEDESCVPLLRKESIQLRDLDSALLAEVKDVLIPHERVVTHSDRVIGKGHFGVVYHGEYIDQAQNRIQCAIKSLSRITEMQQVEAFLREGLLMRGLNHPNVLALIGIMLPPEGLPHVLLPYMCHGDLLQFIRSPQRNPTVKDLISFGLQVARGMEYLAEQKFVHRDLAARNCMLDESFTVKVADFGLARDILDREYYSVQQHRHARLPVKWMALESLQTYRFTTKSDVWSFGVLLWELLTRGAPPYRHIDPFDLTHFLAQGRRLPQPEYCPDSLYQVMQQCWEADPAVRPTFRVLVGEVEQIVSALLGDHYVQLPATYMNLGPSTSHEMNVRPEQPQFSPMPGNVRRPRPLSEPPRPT

ROS/ROS1 = target: T29, ROS/ROS1 (Homo sapiens, UniProt P08922); test: Kinase panel screening 1 μM; details: read-out: enzymatic inhibition ROS/ROS1
T29 construct: purchased Reaction Biology Corp. (Kinase HotSpot)

SYK = target: T30, SYK (Homo sapiens, UniProt P43405); test: Kinase panel screening 1 μM; details: read-out: enzymatic inhibition SYK
T30 construct: purchased Reaction Biology Corp. (Kinase HotSpot)

TRKC = target: T31, TRKC (Homo sapiens, UniProt Q16288); test: Kinase panel screening 1 μM; details: read-out: enzymatic inhibition TRKC
T31 construct: purchased Reaction Biology Corp. (Kinase HotSpot)

TYRO3/SKY = target: T32, TYRO3/SKY (Homo sapiens, UniProt Q06418); test: Kinase panel screening 1 μM; details: read-out: enzymatic inhibition TYRO3/SKY
T32 construct: purchased Reaction Biology Corp. (Kinase HotSpot)

T3 sequence (P45983 whole entry): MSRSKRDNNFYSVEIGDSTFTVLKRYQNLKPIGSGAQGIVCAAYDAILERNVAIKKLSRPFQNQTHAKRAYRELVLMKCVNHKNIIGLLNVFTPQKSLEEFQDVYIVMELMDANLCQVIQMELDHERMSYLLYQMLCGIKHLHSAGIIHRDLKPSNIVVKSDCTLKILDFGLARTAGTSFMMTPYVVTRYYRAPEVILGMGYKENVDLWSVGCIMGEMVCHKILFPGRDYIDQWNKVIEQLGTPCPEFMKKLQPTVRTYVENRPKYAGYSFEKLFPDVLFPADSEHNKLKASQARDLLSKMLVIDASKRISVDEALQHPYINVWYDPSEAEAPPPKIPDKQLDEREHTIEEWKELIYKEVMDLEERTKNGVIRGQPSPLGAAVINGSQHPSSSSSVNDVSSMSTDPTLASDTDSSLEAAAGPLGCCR
T1 sequence (P53779 whole entry): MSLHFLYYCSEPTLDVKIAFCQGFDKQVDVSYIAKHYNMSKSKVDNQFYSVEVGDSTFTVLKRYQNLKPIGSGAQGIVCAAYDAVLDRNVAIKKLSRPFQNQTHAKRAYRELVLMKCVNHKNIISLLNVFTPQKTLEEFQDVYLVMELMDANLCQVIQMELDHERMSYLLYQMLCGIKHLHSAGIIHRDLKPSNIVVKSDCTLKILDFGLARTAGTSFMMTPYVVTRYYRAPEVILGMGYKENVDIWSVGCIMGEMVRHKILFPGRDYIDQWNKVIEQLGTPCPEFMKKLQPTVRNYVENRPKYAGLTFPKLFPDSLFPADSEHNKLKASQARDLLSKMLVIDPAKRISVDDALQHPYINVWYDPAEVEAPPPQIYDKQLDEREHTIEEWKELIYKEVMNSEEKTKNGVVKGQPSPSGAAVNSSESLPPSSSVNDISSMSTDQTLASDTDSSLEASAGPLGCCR
T2 sequence (P45984 whole entry): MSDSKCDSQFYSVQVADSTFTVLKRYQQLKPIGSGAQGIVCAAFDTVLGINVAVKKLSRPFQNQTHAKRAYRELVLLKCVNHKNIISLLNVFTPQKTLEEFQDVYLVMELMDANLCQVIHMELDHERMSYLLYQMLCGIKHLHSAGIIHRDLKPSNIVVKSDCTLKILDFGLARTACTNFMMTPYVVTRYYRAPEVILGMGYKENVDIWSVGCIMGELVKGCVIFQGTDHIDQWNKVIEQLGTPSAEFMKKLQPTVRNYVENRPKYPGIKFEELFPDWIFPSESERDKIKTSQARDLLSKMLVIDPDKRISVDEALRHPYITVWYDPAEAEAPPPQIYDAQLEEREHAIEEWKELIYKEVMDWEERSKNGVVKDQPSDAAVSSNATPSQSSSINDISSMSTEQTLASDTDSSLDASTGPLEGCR

`O=C(C1CC1)N1CCC[C@H](Nc2nccc(-n3c(-c4ccc5c(c4)OCCO5)nc4cc(O)c(O)cc43)n2)C1` [35b, (S)-Cyclopropyl(3-((4-(2-(2,3-dihydrobenzo[b][1,4]dioxin-6-yl)-5,6-dihydroxy-1H-benzo[d]imidazol-1-yl)pyrimidin-2-yl)amino)piperidin-1-yl)methanone] gave an inhibition at 1 µM (JNK3(h); 1 μM, read-out: enzymatic inhibition JNK3) of 90%, an IC50 (JNK3(h); ATP 10 μM, substrate ATF2 5 μM, read-out: JNK3 inhibitory activity IC50) of 9.7 nM and an IC50 (JNK2) of 898 nM. For the same molecule, the inhibition at 1 µM (JNK2; 1 μM, read-out: enzymatic inhibition JNK2) was 38%, the IC50 (JNK1) was > 10000 nM and the inhibition at 1 µM (JNK1; 1 μM, read-out: enzymatic inhibition JNK1) was 9%. For the same molecule, the “selectivity over JNK1” value (JNK1; JNK3 versus JNK1) was > 1000 fold, the IC50 (GSK3β) was 5850 nM and the inhibition at 1 µM (GSK3β; 1 μM, read-out: enzymatic inhibition GSK3b) was 85.5%. For the same molecule, the Selectivity/JNK3 (GSK3β; GSK3β IC50 in comparison with JNK3) was >600 fold, the “inhibition activity for most other kinases” value (over 38 kinases) was “less than 15%” and the inhibition at 1 µM (ABL1) was 20.5%. For the same molecule, the inhibition at 1 µM (AKT1) was 0%, the inhibition at 1 µM (ALK) was 12.5% and the inhibition at 1 µM (Aurora A) was 25.6%. It also gave an inhibition at 1 µM (AXL) of 6.37%, an inhibition at 1 µM (AXL (R499C)) of 0.64% and an inhibition at 1 µM (BRAF (V599E)) of 0%. It also gave an inhibition at 1 µM (BTK) of 9.53%, an inhibition at 1 µM (c-Kit) of 0% and an inhibition at 1 µM (c-MER) of 2.29%. It also gave an inhibition at 1 µM (c-MET) of 0%, an inhibition at 1 µM (c-Src) of 19.3% and an inhibition at 1 µM (EGFR) of 0%. It also gave an inhibition at 1 µM (ERK1) of 0%, an inhibition at 1 µM (FGFR3) of 25.9% and an inhibition at 1 µM (FYN) of 18.3%. For the same molecule, the inhibition at 1 µM (IGF1R) was 13.4%, the inhibition at 1 µM (JAK3) was 10.7% and the inhibition at 1 µM (KDR/VEGFR2) was 5.49%. For the same molecule, the inhibition at 1 µM (LCK) was 7.63%, the inhibition at 1 µM (MEK1) was 0% and the inhibition at 1 µM (PDK1/PDHK1) was 0%. It also gave an inhibition at 1 µM (PLK1) of 0%, an inhibition at 1 µM (RON/MST1R) of 0% and an inhibition at 1 µM (ROS/ROS1) of 0%. The inhibition at 1 µM (SYK) was 1.73%, the inhibition at 1 µM (TRKC) was 8.78% and the inhibition at 1 µM (TYRO3/SKY) was 0%.
